The experiment deals with T1, Enoyl-[acyl-carrier-protein] reductase [NADPH] FabI (Staphylococcus aureus (strain MRSA252), UniProt Q6GI75).
T1 sequence (Q6GI75 whole entry): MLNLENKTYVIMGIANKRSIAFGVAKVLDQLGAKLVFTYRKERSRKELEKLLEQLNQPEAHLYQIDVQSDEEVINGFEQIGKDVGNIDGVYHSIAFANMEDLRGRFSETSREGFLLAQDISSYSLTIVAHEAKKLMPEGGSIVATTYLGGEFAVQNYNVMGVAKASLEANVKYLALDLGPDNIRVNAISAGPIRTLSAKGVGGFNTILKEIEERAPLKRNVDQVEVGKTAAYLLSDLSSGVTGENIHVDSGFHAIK
Briefly: Tight-binding assay. The following applies: pH 7.5.

In general, Ki refers to the dissociation constant of the complex between target and ligand, obtained from inhibition or displacement. The low end stands for a stronger hold on the target, the high end for a looser hold on the target.

`Cc1ccc(Oc2ccccc2)c(O)c1` [US10071965, Compound PT53]: the Ki was 0.494 µM.

These data come from BindingDB's records for patent US10071965 (The State University of New York, 2018).
